Where two headings read alike, the source gives them in different places.
Key:
Assay type in all cases: biochemical
FIH [1] = target: T1, FIH (Homo sapiens, UniProt Q9NWT6); assay: Rapid quench-flow, FIH pre-steady-state product and succinate formation; conditions: for Rapid quench-flow kproduct / Rapid quench-flow ksuccinate: 0.5 mM apo-FIH, 0.4 mM Fe(II), 5 mM 2OG, 1 mM substrate, 50 mM HEPES pH 7.5, O2-saturated buffer 1:1, 5 °C, quenched with 1% CF3CO2H; for Rapid quench-flow kproduct: hydroxylation by MALDI-TOF-MS, 1–3 separate experiments; for Rapid quench-flow ksuccinate: succinate by LC-MS
T1 construct: Full-length recombinant FIH, two- and three-consensus ankyrin repeats (2CA and 3CA) were produced as described; His6 (cleaved yes); made in house; host or cells: Escherichia coli BL21(DE3)
Protocol: Rapid quench-flow experiments were performed using the same conditions and preparation of the assay mixture as used in stopped-flow experiments. Rapid quench-flow equipment (TgK Scientific Ltd.) in an anaerobic glove box was used for the experiments. Samples were quenched with 1% CF3CO2H and analyzed using MALDI-TOF-MS (peptide hydroxylation) as described above or liquid chromatography-mass spectrometry (LC-MS, for succinate production). For LC-MS, chromatographic separation was performed at 50 °C using a Waters ACQUITY BEH Amide 1.7-μm, 2.1 × 100-mm column on a Waters ACQUITY^TM ultraperformance liquid chromatography system (Waters Corp., Milford, MA). The following eluents were used: mobile phase A: 10% H2O, 90% acetonitrile (v/v), 10 mM ammonium formate; mobile phase B: 50% H2O, 50% acetonitrile (v/v), 10 mM ammonium formate. The elution gradient was 0–7.0 min linear from 10 to 30% B, and 7.0–9.0 min at 10% B for re-equilibration of the column. A constant flow rate of 0.4 ml/min was used. Analytes were detected in negative ionization mode using single reaction monitoring on a Quattro triple quadrupole mass spectrometer (Waters) with a cone voltage of 15 V and a capillary voltage of 3.0 kV. The desolvation temperature was set to 250 °C, and the source temperature was set to 120 °C.
FIGURE 9. Rapid quench-flow experiments showing FIH-catalyzed hydroxylation of HIF-1/2α CAD and ARD substrates. Reaction mixtures containing anaerobic 0.5 mM apo-FIH, 0.4 mM Fe(II), 5 mM 2OG, 1 mM peptide in HEPES 50 mM (pH 7.5) were rapidly mixed with O2-saturated buffer at 5 °C in a 1:1 ratio and then quenched with 1% CF3CO2H at defined time points. The data were fitted with the function, y = a·(1 − exp(−bx)) + c. Hydroxylation levels were assessed by MALDI-TOF-MS. A, hydroxylation of HIF-1α CAD, 1CA, and tankyrase-1 peptide substrates (19- and 20-mers); B, hydroxylation of HIF-1α, HIF-2α, and tankyrase-1 35-mer peptide substrates; C, hydroxylation of 1CA, 2CA, and 3CA. Data plotted were cumulatively acquired over the course of 1–3 separate experiments.

FIH [2] = target: T1, FIH; assay: O2 dependence of FIH-catalyzed hydroxylation (hypoxia workstation); conditions: FIH with the named substrate; 5 μM FIH, 500 μM peptide, 50 μM Fe(II), 1 mM 2OG, 1 mM L-ascorbate, 50 mM HEPES pH 7.5, 37 °C, hypoxia workstation at different pO2; triplicate assays
Protocol: (§1) The O2 dependence of FIH-catalyzed reactions was determined by conducting enzymatic assays in an “In vivo 500 Hypoxia Workstation” (Ruskinn) using buffers pre-equilibrated under different pO2 values for 24 h. The O2 dependence of PHD2-catalyzed reactions was determined by conducting enzymatic assays in sealed glass vials with variable N2/O2 contents ([42]). Reactions were stopped by spotting samples onto a matrix-assisted laser desorption/ionization-time of flight mass spectrometry (MALDI-TOF-MS) target plate and immediately mixing with α-cyano-4-hydroxycinnamic acid matrix. Hydroxylation levels were assessed by MALDI-TOF-MS as described ([46]).
FIGURE 4. O2 dependence of FIH- and PHD2-catalyzed hydroxylation of HIF-1/2α. A, O2 dependence of PHD2-catalyzed hydroxylation of HIF-1/2α CODD/NODD 19-mer peptides. 4 μM PHD2, peptide (varied), 50 μM Fe(II), 2OG (varied), 4 mM L-ascorbate in HEPES 50 mM (pH 7.5) were incubated at 37 °C. The different O2 levels were maintained using mass flow controllers ([42]), and the hydroxylation levels were analyzed by MALDI-TOF-MS. B, O2 dependence of FIH-catalyzed hydroxylation of CAD HIF-1/2α 35-mer peptides. Conditions were as follows. 5 μM FIH, 500 μM peptide, 50 μM Fe(II), 1 mM 2OG, 1 mM L-ascorbate in HEPES 50 mM (pH 7.5) were incubated at 37 °C in a hypoxia work station under different pO2. […] Error bars, S.D. of triplicate assays.
FIGURE 8. Time course and O2 dependence of the FIH-catalyzed hydroxylation of HIF-α CAD and ARD substrates. Conditions were as follows. 5 μM FIH, 500 μM peptide, 50 μM Fe(II), 1 mM 2OG, 1 mM L-ascorbate in HEPES 50 mM (pH 7.5) were incubated at 37 °C. For O2 dependence studies, reactions were carried out in a hypoxic work station under different pO2 (assays at >20% O2 conducted using mass flow controllers ([42])). The different hydroxylation levels were analyzed by MALDI-TOF-MS or by LC-MS (for 2CA and 3CA). […] Error bars, S.D. of triplicate assays. A, time course of consensus ARD substrate hydroxylation (tankyrase-1 (tnkrs-1 20-mer and 35-mer) and one-consensus ankyrin repeat 20-mer (1CA)). B, time course of ARD peptide hydroxylation (one-consensus ankyrin repeat 20-mer (1CA), two ankyrin repeats (2CA), and three ankyrin repeats (3CA)). C, O2 dependence of HIF-1/2α CAD, 1CA, and tnkrs-1_35-mer hydroxylation. D, O2 dependence of 1CA, 2CA, and 3CA hydroxylation.

FIH [3] = target: T1, FIH; assay: Stopped-flow UV-visible spectroscopy, FIH·Fe(II)·2OG·substrate + O2; conditions: anaerobic 0.5 mM FIH, 1 mM substrate, 5 mM 2OG, 0.4 mM Fe(II), 50 mM HEPES pH 7.5, mixed 1:1 with O2-saturated buffer at 5 °C; double exponential fit
Protocol: (§2) Stopped-flow UV-visible spectroscopy experiments were performed as described previously ([32], [42]). Anerobically prepared assay mixtures containing 0.5 mM apo-FIH, 1 mM substrate, 5 mM 2OG, 0.4 mM Fe(II) or 0.8 mM apo-PHD2, 1 mM substrate, 5 mM 2OG, 0.5 mM Fe(II) were rapidly mixed with O2-free/O2-saturated buffer. The reaction was observed over 1000 s using a photodiode array detector, and kinetic traces were analyzed using Origin version 8.51 software. Data were fitted with a double exponential function (y = A1 × exp(−kriset) + A2 × exp(−kfallt) + y0). The A1, A2, and y0 parameters were restricted with upper limits to match the observed amplitude/offset changes.
Kinetic traces were fitted using a double exponential function; the fitting parameters of intermediate formation and decay are summarized in Table 3.
FIGURE 10. Stopped-flow UV-visible absorbance changes upon FIH-catalyzed hydroxylation of HIF-1/2α CAD and ARD substrates. Reaction mixtures containing anaerobic 0.5 mM apo-FIH, 0.4 mM Fe(II), 5 mM 2OG, and 1 mM peptide in HEPES 50 mM (pH 7.5) were rapidly mixed with O2-saturated buffer at 5 °C in 1:1 ratio and analyzed using a photodiode array detector. The data were fitted with a double exponential function. A, decay at 500 nm (representing enzyme·substrate complex depletion) observed upon FIH-catalyzed hydroxylation of ARD substrates compared with HIF-1/2α CAD. B, formation and degradation of 310 nm species observed upon FIH-catalyzed HIF-1/2α CAD and ARD hydroxylation. C, decay at 500 nm observed upon FIH-catalyzed hydroxylation of 1CA, 2CA, and 3CA substrates.

FIH [4] = target: T1, FIH; assay: Steady-state kinetics of FIH-catalyzed peptide/protein hydroxylation (MALDI-TOF-MS or LC-MS); conditions: 50 μM Fe(II), 1 mM L-ascorbate, 50 mM HEPES pH 7.5, 37 °C; for Km: 0.1–5 μM FIH, MALDI-TOF-MS (LC-MS for 2CA, 3CA), triplicate assays
Protocol: Enzymatic assays were conducted as described ([46], [47]). Unless otherwise stated, the assay mixture typically contained 5 μM FIH, 500 μM substrate, 500 μM 2OG, 1 mM L-ascorbate, and 50 μM Fe(NH4)2(SO4)2 or 4 μM PHD2, 100 μM substrate, 300 μM 2OG, 4 mM L-ascorbate, and 50 μM Fe(NH4)2(SO4)2. For HIF-1α CODD19-mer, the background levels of methionine oxidation resulting from assay conditions were subtracted based on non-enzymatic controls ([48]).
as §1
Samples obtained from FIH kinetic assays with 2CA and 3CA were diluted to a substrate concentration of 5 μM and then analyzed using a Waters® LCT Classic mass spectrometer by electrospray ionization in positive ion mode. An Agilent HP1100 LC system was used, and samples were run through a Phenomenex® Aeris Widepore 3.6-μm XB-C8 150 × 2.1-mm column at 0.5 ml/min in a gradient of phase A (95% H2O, 5% CH3CN, 0.01% formic acid) to phase B (95% CH3CN, 5% H2O, 0.01% formic acid). The LC/MS used the following method: 0–1.5 min, 100% A and then 1.5–12 min linear gradient from 0 to 100% B, 12–14 min 100% B, and 15.0–19.0 min 100% A for re-equilibration of the column. Data were collected and analyzed using MassLynx version 4.0.

PHD2 = target: T2, PHD2 (Homo sapiens, UniProt Q9GZT9); assay: Stopped-flow UV-visible spectroscopy, PHD2·Fe(II)·2OG·substrate + O2; conditions: anaerobic 0.8 mM PHD2, 1 mM peptide, 5 mM 2OG, 50 mM HEPES pH 7.5, mixed 1:1 with O2-saturated buffer at 5 °C; double exponential fit; traces average of triplicate
T2 construct: The catalytic domain of PHD2 (residues 181–426) was purified as described; made in house
Protocol: as §2, with “Anerobically prepared assay mixtures containing 0.5 mM apo-FIH, 1 mM substrate, 5 mM 2OG, 0.4 mM Fe(II) or 0.8 mM apo-PHD2, 1 mM substrate, 5 mM 2OG, 0.5 mM Fe(II) were rapidly mixed with O2-free/O2-saturated buffer.” left out
Previously reported pre-steady-state kinetic studies on PHD2 focused on its reaction with CODD HIF-1α 19-mer peptide ([38], [42]); there is no reported information on the rates of PHD2 reaction with O2 in the presence of NODD HIF-1α or HIF-2α substrates. To ascertain whether a slow reaction with O2 under pre-steady-state conditions is common to PHD2-catalyzed hydroxylation of both CODD and NODD, we investigated the reaction of PHD2 with NODD substrates in comparison with CODD for both HIF-1α and HIF-2α. Pre-steady-state reactions of PHD2 were initiated by rapid mixing of anaerobic PHD2·Fe(II)·2OG·HIF-α complexes with O2-saturated buffer at 5 °C. Reactions were initially observed using a photodiode array detector, and difference spectra (in comparison with the reaction with O2-free buffer) were subsequently analyzed.
FIGURE 5. Pre-steady-state kinetics of PHD2-catalyzed HIF-1/2α hydroxylation. […] B, stopped-flow kinetic traces at 520 nm showing absorbance changes in control experiments: Fe(II) only, mix of Fe(II) and 2OG, reaction of PHD2·Fe(II)·2OG complex with O2 in the absence of CODD; reaction of PHD2·Fe(II)·N-oxalylglycine (NOG)·CODD complex with O2. N-Oxalylglycine is an inhibitor of 2OG oxygenases. […] The kinetic traces represent the average of triplicate assays. E, HIF-1/2α peptide hydroxylation, as determined by MALDI-TOF-MS. Reactions were quenched with 1% CF3CO2H at defined time points.

T1 sequence (Q9NWT6 whole entry): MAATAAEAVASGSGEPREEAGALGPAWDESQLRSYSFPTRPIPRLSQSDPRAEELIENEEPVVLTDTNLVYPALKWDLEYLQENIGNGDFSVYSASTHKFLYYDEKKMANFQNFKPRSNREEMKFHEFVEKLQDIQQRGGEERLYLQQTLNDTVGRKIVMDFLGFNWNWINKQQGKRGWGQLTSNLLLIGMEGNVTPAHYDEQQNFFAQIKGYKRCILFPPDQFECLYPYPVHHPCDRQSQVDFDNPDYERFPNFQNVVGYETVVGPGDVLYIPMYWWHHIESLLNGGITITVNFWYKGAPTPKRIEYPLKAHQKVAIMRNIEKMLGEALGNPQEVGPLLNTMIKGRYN
T2 sequence (Q9GZT9 181-426): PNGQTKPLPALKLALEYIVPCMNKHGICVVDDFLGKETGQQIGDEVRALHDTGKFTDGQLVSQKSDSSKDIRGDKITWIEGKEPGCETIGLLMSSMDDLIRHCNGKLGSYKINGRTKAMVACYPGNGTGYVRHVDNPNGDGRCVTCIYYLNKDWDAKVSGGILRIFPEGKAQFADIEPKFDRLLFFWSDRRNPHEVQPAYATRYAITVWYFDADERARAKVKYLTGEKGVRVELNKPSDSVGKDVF

For DESGLPQLTSYDCEVNAPI [CAD HIF-1α19-mer], the Rapid quench-flow kproduct (FIH [1]) was 0.013 ± 0.003 s⁻¹, the Rapid quench-flow ksuccinate (FIH [1]) was 0.016 ± 0.004 s⁻¹ and the “Km^app(O2)” value (FIH [2]) was “no difference”.

With “NLEVAEYLLEHGADVNAQDK [tnkrs-1_20-mer, 20-mer fragment of tankyrase-1, ARD substrate of FIH]” the Rapid quench-flow kproduct (FIH [1]) was 1.5 ± 0.1 s⁻¹, the Rapid quench-flow ksuccinate (FIH [1]) was 1.0 ± 0.3 s⁻¹ and the “product accumulation rate, fold faster than the reaction with HIF 35-mer substrates” value (FIH [1]; rapid quench-flow, 5 °C) was about 10 fold. For the same molecule, the “Stopped-flow, 500 nm (FIH) kfall phase” value (FIH [3]) was 16.7 ± 0.2 s⁻¹, the “Stopped-flow, 500 nm (FIH) krise phase” value (FIH [3]) was 0.4 ± 0.2 s⁻¹ and the Km (FIH [4]; FIH with the named substrate, 2OG varied, read-out: Km^app(2OG)) was 370 ± 120 µM. The “kcat^app” value (FIH [4]; FIH, MALDI-TOF-MS or LC-MS) was 0.8 ± 0.1 s⁻¹ and the Km (FIH [4]; FIH, substrate varied, 2OG fixed, read-out: Km^app(peptide)) was 78 ± 11 µM.

B1: HIF-1α(344–503) NODD protein: recombinant HIF-1α(344–503) NODD protein, longer PHD2 substrate (protein, UniProt Q16665 344-503, looked up, fragment)
chain: GIIQHDLIFSLQQTECVLKPVESSDMKMTQLFTKVESEDTSSLFDKLKKEPDALTLLAPAAGDTIISLDFGSNDTETDDQQLEEVPLYNDVMLPSPNEKLQNINLAMSPLPTAETPKPLRSSADPALNQEVALKLEPNPESLELSFTMPQIQDQTPSPSD
B1 was tested, and the “Stopped-flow, 520 nm (PHD2) kfall phase” value (PHD2) was “same kinetics”.
